Source: PMC10527105, “Chirality Matters: Fine-Tuning of Novel Monoamine Reuptake Inhibitors Selectivity through Manipulation of Stereochemistry” (Biomolecules, 2023)
Read-outs that look alike come from different tables or passages of the source.

Tests used:
rat cortical neurons = assay: Neurite outgrowth assay (Cyprotex); format: cell-based; conditions: for IC50: 72 h
Method: Neurite outgrowth assay. […] were carried out by Cyprotex (an Evotec Company, Toulouse, France), Study No. CYP2052-R1. For an in-depth description, please refer to the report in the supporting information files. Cryo-preserved rat cortical neurons (QBM Cell Science, R-Cx-500) were quickly thawed and slowly diluted with neurobasal medium supplemented with L-glutamine (Invitrogen, Cat. No. 25030-081), penicillin-streptomycin (Invitrogen, Cat. No. 15140-122), and B27 (NB/B27 medium, Invitrogen, Cat. No. 17504-044). After a gentle centrifugation step, the neurons were resuspended in NB/B27 medium at a density of 4.0 × 10^6 cells/mL. One hour prior to treatment, the neurons were plated in 384-well plates (Corning 354663) pre-coated with a laminin solution (Sigma L2020 1 mg/mL) at a density of 10,000 cells per well. After treatment with test articles and control compounds, the neurons were maintained in a humidified environment at 37 °C with 5% CO2 for 72 h. At the end of the treatment period, the neurons were fixed for 1 h with a 3.7% formaldehyde solution (Acros Organics, 41073-0010). The neurons were washed with phosphate buffered saline (PBS) (SH30264.02) and permeabilized for 10 min with a 0.5% solution of Triton X-100 (Millipore Sigma, X100). After another wash step, the neurons were stained for one hour with Hoechst 33342 (ThermoFisher Scientific, H3570) and the anti-beta III tubulin antibody, Alexa Fluor® 488 conjugate (Millipore Sigma AB15708A4), diluted in a blocking buffer solution (Thermo Scientific, 37525). Upon completion of the staining step, the neurons were washed again, and the plates were sealed in preparation for the imaging process. The neurons were evaluated for neurite outgrowth and cell health using the high-content imaging platform, ArrayScan VTi (Thermo Scientific ArrayScan VTi), with an optimized neuronal profiling bio-application.
This assay assessed cell health and neurite outgrowth utilizing a neuronal profiling bio-application applied to images obtained on an ArrayScan VTi. Valid neuron count, mean neurite average length, and neurite total length per neuron were determined and reported. Raw data were normalized to the vehicle control and reported as a normalized% response. Dose response graphs were generated with GraphPad Prism using a sigmoidal dose-response (variable slope) algorithm.

[1] = biological target: T1, noradrenaline transporter/SLC6A2 (NET) (Homo sapiens, UniProt P23975); conditions: cells stably expressing NET; ref [35]; read-out: Reuptake Inhibition (IC50 ± SE, µM) NET; cited from earlier work
T1 construct: expressed in transfected cells; host or cells: HEK293
T1 sequence (P23975 whole entry): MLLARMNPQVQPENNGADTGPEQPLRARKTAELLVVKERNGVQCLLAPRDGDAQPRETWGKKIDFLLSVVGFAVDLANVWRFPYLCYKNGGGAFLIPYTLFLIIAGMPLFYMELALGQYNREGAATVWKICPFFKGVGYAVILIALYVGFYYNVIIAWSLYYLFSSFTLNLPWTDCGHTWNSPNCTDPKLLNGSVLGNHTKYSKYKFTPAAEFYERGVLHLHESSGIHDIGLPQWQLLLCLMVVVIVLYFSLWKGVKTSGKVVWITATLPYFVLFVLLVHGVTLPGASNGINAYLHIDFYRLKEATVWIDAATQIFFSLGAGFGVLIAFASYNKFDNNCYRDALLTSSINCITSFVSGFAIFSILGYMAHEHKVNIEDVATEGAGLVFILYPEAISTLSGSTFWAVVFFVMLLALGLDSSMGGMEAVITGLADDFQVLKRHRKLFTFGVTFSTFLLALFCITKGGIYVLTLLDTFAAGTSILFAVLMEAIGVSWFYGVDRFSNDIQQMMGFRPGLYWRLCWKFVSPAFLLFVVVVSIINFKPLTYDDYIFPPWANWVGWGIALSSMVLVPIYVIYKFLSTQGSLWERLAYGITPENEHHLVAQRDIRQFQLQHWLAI

SMILES: CN(C)CCCN1c2ccccc2Sc2ccc(Cl)cc21 [Chlorpromazine, reference compound]
- IC50 (rat cortical neurons; Rattus norvegicus, Cortical neurone, read-out: Mean Neurite Avg. Length IC50, rat cortical neurons, 72 h): 9.02 µM
- IC50 (rat cortical neurons; Rattus norvegicus, Cortical neurone, read-out: Neurite Total Length per Neuron IC50, rat cortical neurons, 72 h): 13.8 µM
- IC50 (rat cortical neurons; Rattus norvegicus, Cortical neurone, read-out: Valid Neuron Count IC50, rat cortical neurons, 72 h): 7.99 µM
- effect on neurite outgrowth in relation to effect on cell viability (rat cortical neurons; rat cortical neurons): not independent of its effect on cell viability
- IC50 (rat cortical neurons; read-out: Mean Neurite Avg. Length IC50, rat cortical neurons): 9.02 µM

SMILES: COC(=O)Nc1nc2ccc(C(=O)c3cccs3)cc2[nH]1 [Nocodazole, reference compound]
- IC50 (rat cortical neurons; Cortical neurone, rat cortical neurons, read-out: Mean Neurite Avg. Length IC50): 0.097 µM
- IC50 (rat cortical neurons; Cortical neurone, rat cortical neurons, read-out: Neurite Total Length per Neuron IC50): 0.0997 µM
- IC50 (rat cortical neurons; Cortical neurone, rat cortical neurons, read-out: Valid Neuron Count IC50): 2.22 µM
- effect on neurite outgrowth in relation to effect on cell viability (rat cortical neurons; rat cortical neurons): positive for substantially affecting neurite outgrowth while nominally affecting cell viability

SMILES: NC(=O)C[S@@+]([O-])C(c1ccccc1)c1ccccc1 [R-Modafinil]
- IC50 [1]: 169 ± 90 µM
